Experimental data taken from patent US20040077659A1, “Method for treating ppar gamma mediated diseases or conditions” (priority 2003, published 2004).

Experiments:
[1] = system: Zucker Diabetic Fatty rats (ZDF fa/fa); assay: Diabetic rat study, 28-day; format: in vivo; set-up: total serum protein: unit not given here; settings: for glycemic control / insulin: 28-day treatment, relative to vehicle treatment; for hematocrit (% RBC volume): vehicle 49±0.3; for hemodilution as indicated by hematocrit and total serum protein: day 28, versus vehicle group
Experimental: The five PPAR pan agonist molecules prepared above were administered by oral gavage to genetically altered rodents that simulate the human disease of type 2 Diabetes Mellitus (Zucker Diabetic Fatty rats (ZDF fa/fa)). As a control a PPAR gamma agonist 2-[2-(methoxycarbonyl)anilino]-3-{4-[2-(5-methyl-2-phenyl-1,3-oxazol-4-yl)ethoxy]phenyl}propanoic acid was also tested. This PPAR gamma agonist can be prepared as described in Cobb, J. E., et al., N-(2-Benzoylphenyl)-L-tyrosine PPARg agonists. 3. Structure-activity relationship and optimization of the N-aryl substituent., J. Med. Chem. 1998, 41, 5055-5069. As an additional control, one group was treated with vehicle alone.
While all five hPPAR pan agonist molecules were evaluated in the above study for 7 days, one of these pan agonists, 2-{4-[({4-{[4-(4-methoxyphenyl)-1-piperazinyl]methyl}-2-[4-(triflouromethyl)phenyl]-1,3-thiazol-5-yl}methyl)sulfanyl]phenoxy}-2-methylpropanoic acid, and the PPAR gamma agonist were tested for 28 days. Animals were treated earlier than in the 7-day study, before the development of diabetes as measured by increased plasma glucose. Measurements were obtained at 7 day intervals and the PPAR pan agonist molecule (♦) was compared to vehicle control (*) and the PPAR gamma agonist (□). [formula] [formula] [formula]

Cynomolgus monkeys = assay: Primate study, edema and hemodilution; format: in vivo, Cynomolgus monkey; settings: oral once daily for 63 or 64 days, 1, 5 and 15 mg/kg
Experimental: In addition to the above rat studies, a primate study was conducted using the PPAR pan agonist 2-{4-[({4-{[4-(4-methoxyphenyl)-1-piperazinyl]methyl}-2-[4-(trifluoromethyl)phenyl]-1,3-thiazol-5-yl}methyl)sulfanyl]phenoxy}-2-methylpropanoic acid. In that study, male and female Cynomolgus monkeys were dosed orally once daily for 63 or 64 days with doses projected to provide greater than 3× the serum concentration needed to lower insulin resistance and serum glucose in diabetic patients. The animals were dosed at 0 mg/kg (control), 1 mg/kg, 5 mg/kg, and 15 mg/kg of the PPAR pan agonist. The animals were carefully observed for signs of edema and or hemodilution. Methods of evaluation during the in-life portion of the study included visual observation of swelling, particularly around the eyes and or genitals by a Board Certified pathologist, as well as evaluation of clinical hematology (red blood cell volume) and clinical chemistries (total serum protein) as evidence of hemodilution. At necropsy, careful examination for gross evidence of edema was based on palpation and careful examination of all issue. Special emphasis was given to the gross evaluation of subcutaneous tissue, all fat stores, lungs and all serous cavities.

Compound	body weight increase from the start of dosing ([1]; 28-day study) [%]	glycemic control [1]	insulin [1]	hematocrit (% RBC volume) ([1]; after 28 days)	hemodilution as indicated by hematocrit and total serum protein [1]	edema in tissues examined histologically (Cynomolgus monkeys)	signs of edema or hemodilution during in-life or necropsy portions (Cynomolgus monkeys)	body weight gain compared with vehicle treated animals ([1]; 28-day study)	total serum protein ([1]; after 28 days, vehicle 7.5±0.2)
COC(=O)c1ccccc1NC(Cc1ccc(OCCc2nc(-c3ccccc3)oc2C)cc1)C(=O)O (stereo not shown) [PPAR gamma agonist, 2-[2-(methoxycarbonyl)anilino]-3-{4-[2-(5-methyl-2-phenyl-1,3-oxazol-4-yl)ethoxy]phenyl}propanoic acid, reference compound]	120	maintained glycemic control	lowered insulin	43±1.0	evident	–	–	–	–
COc1ccc(N2CCN(Cc3nc(-c4ccc(C(F)(F)F)cc4)sc3CSc3ccc(OC(C)(C)C(=O)O)cc3)CC2)cc1 [PPAR pan agonist, 2-{4-[({4-{[4-(4-Methoxyphenyl)-1-piperazinyl]methyl}-2-[4-(trifluoromethyl)phenyl]-1,3-thiazol-5-yl}methyl)sulfanyl]phenoxy}-2-methylpropanoic acid]	–	maintained glycemic control	lowered insulin	48±0.9	not significantly different from the vehicle group	No evidence of edema	no signs or suggestions of edema or hemodilution	not significantly different from the vehicle treated animals	7.2±0.2
